Source: patent US20230265116A1, “DEGRADATION OF (EGFR) BY CONJUGATION OF EGFR INHIBITORS WITH E3 LIGASE LIGAND AND METHODS OF USE” (BEIGENE, LTD., priority 2020, published 2023)
Like-named read-outs stand apart in the source and are kept apart here.

Key:
Assay type in all cases: cell-based
[1] = test system: EGFR Del19/T790M/C797S (BaF3-DTC cells); experiment: EGFR degradation HTRF assay, BaF3-DTC cells; settings: for DTC Dmax (%): maximum percentage of degradation
How it was run: (§1)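 EGFR remaining after a 16 h, 37 °C exposure (8 doses, 5-fold steps from 10 uM final, 0.2% DMSO) was quantified by HTRF antibodies in cell lysate. Percent inhibition relative to DMSO control was fitted by four-parameter logistic to give DC50; Dmax denotes maximal degradation.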

[2] = target: T1, EGFR (HCC827 cells) (Homo sapiens, UniProt P00533, DEL746-750); experiment: EGFR degradation HTRF assay, HCC827 cells; settings: HCC827, 16h treatment; for Dmax: maximum percentage of degradation
T1 construct: endogenous in cells; host or cells: HCC827
How it was run: as §1

[3] = target: T2, EGFR L858R/T790M/C797S (BaF3-LTC cells) (Homo sapiens, UniProt P00533, C797S/L858R/T790M); experiment: EGFR degradation HTRF assay, BaF3-LTC cells; settings: BaF3-LTC, 16h treatment; for Dmax: maximum percentage of degradation, read-out: LTC Dmax (%); for DC50: read-out: LTC DC50
T2 construct: expressed in transfected cells; host or cells: BaF3
How it was run: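 Cells treated 16 h at 37 °C, 5% CO2 in medium with 0.2% DMSO; top final concentration 10 uM, 5-fold dilution, 8 doses. Lysates read by HTRF (665/620 nm); degradation % versus DMSO high control, DC50 from four-parameter fit, Dmax as maximal degradation.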

[4] = target: T3, EGFR WT (BaF3 WT cells) (Homo sapiens, UniProt P00533); experiment: EGFR degradation HTRF assay, BaF3 WT cells
T3 construct: expressed in transfected cells; host or cells: BaF3
Description: BaF3 WT(wild type), BaF3-LTC(L858R/T790M/C797S) and BaF3-DTC(Del19/T790M/C797S) cells are treated with compounds diluted in 0.2% DMSO cell culture medium and incubate for 16h, 37° C., 5% CO2, H1975-#36, H1975-#28, H1975-#23 and HCC827 cells are treated with compounds diluted in 0.2% DMSO cell culture medium on day 2, incubate for 16h, 37° C., 5% CO2.the final concentriation of compounds in all assay is start with 10 uM, 5-fold dilution, total 8 doses were included.
After 16h treatment, add HTRF lysis buffer to each well; seal the plate and incubate 1 hour at room temperature on a plate shaker; Once the cells are lysed, 16 μL of cell lysate are transferred to a PE 384-well HTRF detection plate; 4 μL of pre-mixed HTRF antibodies are added to each well; Cover the plate with a plate sealer, spin 1000 rpm for 1 min, Incubate overnight at room temperature; Read on BMG PheraStar with HTRF protocol (337 nm-665 nm-620 nm).
The inhibition (degradation) percentage of the compound was calculated by the following equation: Inhibition percentage of Compound=100-100×(Signal-low control)/(High control-low control), wherein signal=each test compound group
High control=Cell group with added DMSO and without compound, indicating microplate readings without EGFR degradation;
Dmax is the maximum percentage of inhibition (degradation).
The IC50 (DC50) value of a compound can be obtained by fitting the following equation
Y=Bottom+(TOP−Bottom)/(1+((IC50/X)^hillslope))
Wherein, X and Y are known values, and IC50, Hillslope, Top and Bottom are the parameters obtained by fitting with software. Y is the inhibition percentage (calculated from the equation), X is the concentration of the compound; IC50 is the concentration of the compound when the 50% inhibition is reached. The smaller the IC50 value is, the stronger the inhibitory ability of the compound is. Vice versa, the higher the IC50 value is, the weaker the inhibitory ability of the compound is; Hillslope represents the slope of the fitted curve, generally around 1*; Bottom represents the minimum value of the curve obtained by data fitting, which is generally 0%±20%; Top represents the maximum value of the curve obtained by data fitting, which is generally 100%±20%. The experimental data were fitted by calculating and analyzing with Dotmatics data analysis software.

[5] = target: T4, EGFR L858R/T790M (H1975-clone #36, homozygous) (Homo sapiens, UniProt P00533, L858R/T790M); experiment: EGFR degradation HTRF assay, H1975-clone #36 cells; settings: H1975 #36, 16h treatment; for Dmax: NCI-H1975, maximum percentage of degradation
T4 construct: designed to specifically target WT EGFR but preserve the L858R/T790M copy; host or cells: H1975-clone #36
How it was run: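 H1975 clone #36, made homozygous for L858R/T790M EGFR by knockout of the WT allele, treated 16 h at 37 °C with compound in 0.2% DMSO medium. Eight doses from 10 uM, 5-fold dilutions. EGFR measured by HTRF in lysates. DC50 and Dmax fitted against DMSO controls.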

[6] = 16h treatment, read-out: DTC DC50
[7] = BaF3 WT, 16h treatment, maximum percentage of degradation, read-out: WT Dmax (%)

T3 sequence (P00533 25-1210): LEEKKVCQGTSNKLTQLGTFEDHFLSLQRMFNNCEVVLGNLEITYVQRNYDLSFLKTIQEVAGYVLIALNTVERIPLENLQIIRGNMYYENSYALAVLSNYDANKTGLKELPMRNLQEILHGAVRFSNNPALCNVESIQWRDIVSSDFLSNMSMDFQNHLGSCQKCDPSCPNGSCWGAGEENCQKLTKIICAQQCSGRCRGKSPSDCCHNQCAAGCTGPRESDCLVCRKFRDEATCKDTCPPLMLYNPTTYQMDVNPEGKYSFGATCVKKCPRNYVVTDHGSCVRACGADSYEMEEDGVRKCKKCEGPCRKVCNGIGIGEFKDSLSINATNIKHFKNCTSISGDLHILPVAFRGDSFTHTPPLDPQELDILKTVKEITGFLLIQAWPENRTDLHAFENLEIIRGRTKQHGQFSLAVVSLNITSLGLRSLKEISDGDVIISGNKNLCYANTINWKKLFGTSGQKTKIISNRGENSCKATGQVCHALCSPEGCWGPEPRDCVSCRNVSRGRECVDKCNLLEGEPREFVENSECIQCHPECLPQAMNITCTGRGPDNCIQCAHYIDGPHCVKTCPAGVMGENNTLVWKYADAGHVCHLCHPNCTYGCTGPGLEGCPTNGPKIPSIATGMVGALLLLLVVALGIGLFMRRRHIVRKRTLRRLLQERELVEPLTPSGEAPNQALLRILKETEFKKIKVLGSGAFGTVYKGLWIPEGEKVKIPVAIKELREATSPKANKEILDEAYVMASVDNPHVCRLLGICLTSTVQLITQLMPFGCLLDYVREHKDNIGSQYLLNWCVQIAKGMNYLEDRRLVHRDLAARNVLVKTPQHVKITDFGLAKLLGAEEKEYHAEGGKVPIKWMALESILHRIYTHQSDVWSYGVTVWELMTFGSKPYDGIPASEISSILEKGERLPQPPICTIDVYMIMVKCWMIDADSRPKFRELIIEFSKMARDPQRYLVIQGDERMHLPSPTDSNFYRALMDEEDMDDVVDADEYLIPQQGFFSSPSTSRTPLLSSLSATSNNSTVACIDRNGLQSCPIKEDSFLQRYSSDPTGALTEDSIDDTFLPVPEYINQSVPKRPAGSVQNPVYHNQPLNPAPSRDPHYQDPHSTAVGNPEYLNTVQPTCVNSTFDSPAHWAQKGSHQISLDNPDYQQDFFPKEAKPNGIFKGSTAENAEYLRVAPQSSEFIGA
T1 sequence (P00533 with tags, fused parts or gaps DEL746-750): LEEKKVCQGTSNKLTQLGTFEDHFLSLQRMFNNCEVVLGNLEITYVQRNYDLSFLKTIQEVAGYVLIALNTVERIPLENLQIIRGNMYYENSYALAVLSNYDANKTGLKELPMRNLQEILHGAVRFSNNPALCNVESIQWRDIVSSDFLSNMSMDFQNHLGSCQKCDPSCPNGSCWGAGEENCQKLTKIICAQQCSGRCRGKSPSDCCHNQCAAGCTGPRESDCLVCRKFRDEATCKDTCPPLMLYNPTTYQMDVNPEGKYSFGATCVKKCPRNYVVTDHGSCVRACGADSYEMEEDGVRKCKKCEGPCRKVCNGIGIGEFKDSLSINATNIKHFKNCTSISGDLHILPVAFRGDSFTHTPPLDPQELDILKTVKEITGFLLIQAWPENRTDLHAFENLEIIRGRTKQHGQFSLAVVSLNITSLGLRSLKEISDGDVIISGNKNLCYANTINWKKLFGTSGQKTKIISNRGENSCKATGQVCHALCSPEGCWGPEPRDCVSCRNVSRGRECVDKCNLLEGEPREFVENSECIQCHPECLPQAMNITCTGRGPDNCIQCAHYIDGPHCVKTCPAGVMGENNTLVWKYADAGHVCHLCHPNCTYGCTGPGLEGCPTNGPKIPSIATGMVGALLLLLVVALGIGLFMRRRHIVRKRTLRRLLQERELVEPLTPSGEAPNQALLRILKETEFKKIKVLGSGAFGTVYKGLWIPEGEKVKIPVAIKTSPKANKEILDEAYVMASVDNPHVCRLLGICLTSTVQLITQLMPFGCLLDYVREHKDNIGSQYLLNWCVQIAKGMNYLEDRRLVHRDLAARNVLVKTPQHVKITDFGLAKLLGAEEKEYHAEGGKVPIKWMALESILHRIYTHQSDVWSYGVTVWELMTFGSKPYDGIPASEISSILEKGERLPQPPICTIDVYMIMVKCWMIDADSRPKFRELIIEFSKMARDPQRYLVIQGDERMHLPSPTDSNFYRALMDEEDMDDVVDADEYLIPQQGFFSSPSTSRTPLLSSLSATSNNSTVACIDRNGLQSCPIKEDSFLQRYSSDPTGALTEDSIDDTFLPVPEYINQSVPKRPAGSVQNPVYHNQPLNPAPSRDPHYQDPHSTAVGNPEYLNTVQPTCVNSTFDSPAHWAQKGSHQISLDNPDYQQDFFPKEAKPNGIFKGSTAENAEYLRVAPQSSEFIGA
T2 sequence (P00533 25-1210 T790M/C797S/L858R): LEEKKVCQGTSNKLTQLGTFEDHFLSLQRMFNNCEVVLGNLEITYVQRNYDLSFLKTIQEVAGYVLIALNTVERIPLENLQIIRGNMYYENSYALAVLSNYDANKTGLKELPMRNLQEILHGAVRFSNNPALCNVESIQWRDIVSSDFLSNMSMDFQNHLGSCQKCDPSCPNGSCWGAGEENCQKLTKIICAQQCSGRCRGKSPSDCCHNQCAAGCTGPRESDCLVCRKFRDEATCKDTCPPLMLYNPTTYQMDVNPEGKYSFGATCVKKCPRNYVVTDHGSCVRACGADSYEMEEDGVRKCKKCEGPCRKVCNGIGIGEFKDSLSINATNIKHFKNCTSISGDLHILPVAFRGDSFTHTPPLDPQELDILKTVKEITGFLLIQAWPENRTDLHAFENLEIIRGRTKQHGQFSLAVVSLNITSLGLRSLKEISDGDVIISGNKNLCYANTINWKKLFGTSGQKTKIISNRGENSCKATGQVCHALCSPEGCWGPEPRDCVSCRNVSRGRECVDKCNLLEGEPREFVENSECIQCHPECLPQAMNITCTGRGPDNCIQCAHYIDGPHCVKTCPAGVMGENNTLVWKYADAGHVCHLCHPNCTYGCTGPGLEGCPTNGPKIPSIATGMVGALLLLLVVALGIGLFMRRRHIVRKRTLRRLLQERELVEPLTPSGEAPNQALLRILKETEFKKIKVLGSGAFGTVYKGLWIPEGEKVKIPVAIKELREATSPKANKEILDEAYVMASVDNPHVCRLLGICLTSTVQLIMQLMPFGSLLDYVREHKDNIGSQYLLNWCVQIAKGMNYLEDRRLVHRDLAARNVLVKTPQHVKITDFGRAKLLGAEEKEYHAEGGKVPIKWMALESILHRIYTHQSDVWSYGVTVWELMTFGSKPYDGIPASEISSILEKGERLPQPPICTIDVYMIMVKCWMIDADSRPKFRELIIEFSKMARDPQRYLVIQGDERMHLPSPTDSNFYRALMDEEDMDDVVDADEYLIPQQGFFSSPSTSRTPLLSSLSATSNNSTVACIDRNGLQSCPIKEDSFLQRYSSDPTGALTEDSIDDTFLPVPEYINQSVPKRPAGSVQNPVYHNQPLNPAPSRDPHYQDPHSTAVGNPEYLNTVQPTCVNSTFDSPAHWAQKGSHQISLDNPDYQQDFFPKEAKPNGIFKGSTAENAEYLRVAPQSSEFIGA
T4 sequence (P00533 25-1210 T790M/L858R): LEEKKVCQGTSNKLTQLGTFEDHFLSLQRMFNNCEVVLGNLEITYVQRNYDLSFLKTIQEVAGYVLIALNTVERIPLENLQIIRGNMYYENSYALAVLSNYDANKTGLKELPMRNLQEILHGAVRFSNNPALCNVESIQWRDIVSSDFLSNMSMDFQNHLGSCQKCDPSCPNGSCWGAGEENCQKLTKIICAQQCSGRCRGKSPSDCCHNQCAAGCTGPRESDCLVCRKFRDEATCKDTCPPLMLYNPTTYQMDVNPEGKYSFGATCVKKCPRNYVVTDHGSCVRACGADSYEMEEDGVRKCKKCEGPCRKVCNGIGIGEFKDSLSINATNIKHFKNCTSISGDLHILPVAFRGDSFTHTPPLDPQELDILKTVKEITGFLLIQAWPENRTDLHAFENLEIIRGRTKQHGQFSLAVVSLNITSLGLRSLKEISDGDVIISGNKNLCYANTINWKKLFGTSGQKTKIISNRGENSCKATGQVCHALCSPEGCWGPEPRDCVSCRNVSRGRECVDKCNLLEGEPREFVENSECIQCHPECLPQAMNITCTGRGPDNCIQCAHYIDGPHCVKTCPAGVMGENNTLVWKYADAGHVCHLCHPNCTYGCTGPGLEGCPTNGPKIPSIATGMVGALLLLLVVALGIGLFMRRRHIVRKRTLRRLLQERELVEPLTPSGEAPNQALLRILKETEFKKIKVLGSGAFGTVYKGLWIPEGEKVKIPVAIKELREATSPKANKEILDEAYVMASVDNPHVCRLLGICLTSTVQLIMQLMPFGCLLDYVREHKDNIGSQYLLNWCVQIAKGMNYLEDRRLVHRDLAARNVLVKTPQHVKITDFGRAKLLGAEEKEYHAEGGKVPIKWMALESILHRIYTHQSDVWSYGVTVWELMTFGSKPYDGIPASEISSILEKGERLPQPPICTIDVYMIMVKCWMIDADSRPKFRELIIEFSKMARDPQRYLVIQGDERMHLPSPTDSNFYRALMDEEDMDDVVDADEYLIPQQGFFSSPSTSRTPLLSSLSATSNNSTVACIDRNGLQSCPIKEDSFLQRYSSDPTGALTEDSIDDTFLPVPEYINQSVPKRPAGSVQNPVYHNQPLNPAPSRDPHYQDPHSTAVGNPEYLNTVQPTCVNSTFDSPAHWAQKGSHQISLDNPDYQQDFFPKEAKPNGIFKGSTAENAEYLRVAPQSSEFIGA

SMILES | DC50 [1, 6] [nM] | DC50 [2] [nM] | Dmax [2] [%] | Dmax [3] [%] | DC50 [3] [nM] | DC50 ([4]; BaF3 WT, 16h treatment) [nM] | Dmax [4, 7] [%] | DC50 [5] [nM] | Dmax [5] [%] | DTC Dmax (%) ([1]; 16h treatment) | DC50 ([1]; read-out: DTC DC50, 16h treatment) [nM] | Dmax ([4]; BaF3, read-out: WT Dmax (%)) [%]
CCc1cc(Nc2ncc(Br)c(Nc3ccc4nccnc4c3P(C)(C)=O)n2)c(OC)cc1N1CCC(N2CCN(CCC3CCN(c4ccc(C5CCC(=O)NC5=O)cc4)CC3)CC2)CC1 (centres unmarked) [Example 23, 3-(4-(4-(2-(4-(1-(4-((5-bromo-4-((5-(dimethylphosphoryl)quinoxalin-6-yl)amino)pyrimidin-2-yl)amino)-2-ethyl-5-methoxyphenyl)piperidin-4-yl)piperazin-1-yl)ethyl)piperidin-1-yl)phenyl)piperidine-2,6-dione] | 13.3 | 2.05 | 93.4 | 89 | 25.6 | > 10000 | 14.6 | 14.1 | 65.5 | 95.73 |  | 
CCc1cc(Nc2ncc(Br)c(Nc3ccc4nccnc4c3P(C)(C)=O)n2)c(OC)cc1N1CCC(N2CCN(CCCCCc3ccc(C4CCC(=O)NC4=O)cc3)CC2)CC1 (centres unmarked) [Example 7, 3-(4-(5-(4-(1-(4-((5-bromo-4-((5-(dimethylphosphoryl)quinoxalin-6-yl)amino)pyrimidin-2-yl)amino)-2-ethyl-5-methoxyphenyl)piperidin-4-yl)piperazin-1-yl)pentyl)phenyl)piperidine-2,6-dione] | 18.2 | 3.95 | 74.3 | 90.5 | 36.4 | > 10000 | 41.9 | > 156 | 49 | 95.15 |  | 
CCc1cc(Nc2ncc(Br)c(Nc3ccc4nccnc4c3P(C)(C)=O)n2)c(OC)cc1N1CCC(N2CCN(CCc3ccc(C4CCC(=O)NC4=O)cc3)CC2)CC1 (centres unmarked) [Example 1, 3-(4-(2-(4-(1-(4-((5-bromo-4-((5-(dimethylphosphoryl)quinoxalin-6-yl)amino)pyrimidin-2-yl)amino)-2-ethyl-5-methoxyphenyl)piperidin-4-yl)piperazin-1-yl)ethyl)phenyl)piperidine-2,6-dione] |  | 3.6 | 86.9 | 89.3 |  | > 10000 | 49.2 | 7.22 | 60.8 |  |  | 
CCc1cc(Nc2ncc(Br)c(Nc3ccc4nccnc4c3P(C)(C)=O)n2)c(OC)cc1N1CCC(N2CCN(CCN(C)c3ccc4c(c3)CN(C3CCC(=O)NC3=O)C4=O)CC2)CC1 (centres unmarked) [Example 71, 3-(5-((2-(4-(1-(4-((5-bromo-4-((5-(dimethylphosphoryl)quinoxalin-6-yl)amino)pyrimidin-2-yl)amino)-2-ethyl-5-methoxyphenyl)piperidin-4-yl)piperazin-1-yl)ethyl)(methyl)amino)-1-oxoisoindolin-2-yl)piperidine-2,6-dione] |  |  |  | 80 | 11.5 | > 10000 |  |  |  | 81.19 | 7.52 | 31.4

More lines, main results first:

DC50 [1, 6] [nM] | DC50 [2] [nM] | Dmax [2] [%] | Dmax [3] [%] | DC50 [3] [nM] | DC50 ([4]; BaF3 WT, 16h treatment) [nM] | Dmax [4, 7] [%] | DC50 [5] [nM] | Dmax [5] [%] | SMILES | DTC Dmax (%) ([1]; 16h treatment) | DC50 ([1]; read-out: DTC DC50, 16h treatment) [nM] | Dmax ([4]; BaF3, read-out: WT Dmax (%)) [%]
3.72 | 5.33 | 81 | 92.1 | 7.04 | > 10000 | 11.7 | 4.69 | 99.9 | CP(C)(=O)c1c(Nc2nc(Nc3ccc(N4CCN(C5CN(CC6CN(c7ccc8c(c7)C(=O)N(C7CCC(=O)NC7=O)C8=O)C6)C5)CC4)c(F)c3)ncc2Br)ccc2nccnc12 (centres unmarked) [Example 259, 5-(3-((3-(4-(4-((5-bromo-4-((5-(dimethylphosphoryl)quinoxalin-6-yl)amino)pyrimidin-2-yl)amino)-2-fluorophenyl)piperazin-1-yl)azetidin-1-yl)methyl)azetidin-1-yl)-2-(2,6-dioxopiperidin-3-yl)isoindoline-1,3-dione] | 95.97 |  | 
6.05 | 2.84 | 90 | 90.4 | 20.1 | > 10000 | 22.2 | 9.34 | 77.2 | CCc1cc(Nc2ncc(Br)c(Nc3ccc4nccnc4c3P(C)(C)=O)n2)c(OC)cc1N1CCC(N2CCN(C(=O)CCN3CCN(c4ccc5c(c4)C(=O)N(C4CCC(=O)NC4=O)C5=O)CC3)CC2)CC1 (centres unmarked) [Example 61, 5-(4-(3-(4-(1-(4-((5-bromo-4-((5-(dimethylphosphoryl)quinoxalin-6-yl)amino)pyrimidin-2-yl)amino)-2-ethyl-5-methoxyphenyl)piperidin-4-yl)piperazin-1-yl)-3-oxopropyl)piperazin-1-yl)-2-(2,6-dioxopiperidin-3-yl)isoindoline-1,3-dione] | 96.02 |  | 
53.7 | 3.2 | 84 | 86.2 | 168 | > 10000 | 15.3 | 11.5 | 85 | COc1cc(N2CCC(N3CCN(C(=O)CCCCN4CCN(c5ccc6c(c5)C(=O)N(C5CCC(=O)NC5=O)C6=O)CC4)CC3)CC2)ccc1Nc1ncc(Cl)c(Nc2ccccc2N(C)S(C)(=O)=O)n1 (centres unmarked) [Example 128, N-(2-((5-chloro-2-((4-(4-(4-(5-(4-(2-(2,6-dioxopiperidin-3-yl)-1,3-dioxoisoindolin-5-yl)piperazin-1-yl)pentanoyl)piperazin-1-yl)piperidin-1-yl)-2-methoxyphenyl)amino)pyrimidin-4-yl)amino)phenyl)-N-methylmethanesulfonamide] | 99.67 |  | 
281 | 1.74 | 86.3 | 38.5 | > 2000 | > 10000 | 3.27 |  |  | CCc1cc(Nc2ncc(Br)c(Nc3ccc4nccnc4c3P(C)(C)=O)n2)c(OC)cc1N1CCC(N2CCN(C(=O)C3CCN(CC4CCN(c5ccc6c(c5)C(=O)N(C5CCC(=O)NC5=O)C6=O)CC4)CC3)CC2)CC1 (centres unmarked) [Example 63, 5-(4-((4-(4-(1-(4-((5-bromo-4-((5-(dimethylphosphoryl)quinoxalin-6-yl)amino)pyrimidin-2-yl)amino)-2-ethyl-5-methoxyphenyl)piperidin-4-yl)piperazine-1-carbonyl)piperidin-1-yl)methyl)piperidin-1-yl)-2-(2,6-dioxopiperidin-3-yl)isoindoline-1,3-dione] | 52.42 |  | 
8.49 |  |  | 95 | 12.2 | > 10000 | 26.1 |  |  | CCc1cc(Nc2ncc(Br)c(Nc3ccc4nccnc4c3P(C)(C)=O)n2)c(OC)cc1N1CCC(N2CCN(CCC3CCN(c4ccc5c(c4)CN(C4CCC(=O)NC4=O)C5=O)CC3)CC2)CC1 (centres unmarked) [Example 70, 3-(5-(4-(2-(4-(1-(4-((5-bromo-4-((5-(dimethylphosphoryl)quinoxalin-6-yl)amino)pyrimidin-2-yl)amino)-2-ethyl-5-methoxyphenyl)piperidin-4-yl)piperazin-1-yl)ethyl)piperidin-1-yl)-1-oxoisoindolin-2-yl)piperidine-2,6-dione] | 91.36 |  | 
